Measurements as given in article PMC12516498, “Enzymatic, cell-based, and in silico evaluation of di-substituted aminomethyl-1,2,3-triazole–cinamamide hybrids as mushroom tyrosinase inhibitors” (RSC Advances, 2025).

Columns and labels:
[1] = DPPH free radical-scavenging assay; details: 200 µM compound, DPPH 110 µM, 30 min
Experimental: As described previously, radical-scavenging activity was assessed using the 2,2-diphenyl-1-picrylhydrazyl (DPPH) assay. Briefly, the mixture of different concentrations of the compounds and DPPH methanolic solution (110 µM) was shaken in the dark at room temperature for 30 min. The mixture absorbance was measured at 517 nm. Quercetin was used as the positive control.[25]

B16F10 melanoma cells [2] = assay: Melanin content assay; format: cell-based, murine; details: α-MSH 100 nM, 70 µM compound, 48 h, untreated control 92 µg mL^−1
Experimental: The melanin content assay was performed according to previously reported protocols with minor modifications. Briefly, B16F10 cells were seeded in 12-well plates at a density of 50 000 cells per well. After 24 hours of incubation, 100 nM α-MSH was added to each well, followed by the addition of compound 9i five hours later. The plates were then incubated for an additional 48 hours. Subsequently, the cells were washed twice with PBS and harvested using […]. The cell pellets were dissolved in 200 µL of 1 N NaOH containing 10% DMSO and incubated at 80 °C for 2 hours to solubilize the melanin. The absorbance of the resulting supernatant was measured at […] using a microplate reader. The melanin content was quantified using a calibration curve constructed from synthetic melanin standards, measured at 405 nm. Kojic acid was used as a positive control for comparison.[29]

mushroom tyrosinase = mushroom tyrosinase (Agaricus bisporus, UniProt C7FF04); assay: Enzyme kinetic study / determination of the inhibition type (Lineweaver–Burk); format: biochemical; details: Lineweaver–Burk plot: Km increased, Vmax unchanged
Experimental: The substrate (L-DOPA) concentrations ranged from 0.5 to 2.8 mM according to the previously reported procedures.[24]

B16F10 melanoma cells [3] = assay: MTT assay for cell viability; format: cell-based, murine; details: concentrations ≤100 µM
Experimental: (§1) The cytotoxic activity of all derivatives was determined using the 3-(4,5-dimethylthiazol-2-yl)-2,5-diphenyltetrazolium bromide (MTT) assay. B16F10 were obtained from the Pasteur Institute of Iran (https://en.pasteur.ac.ir/). Cells (at a density of 25 000 cells per ml) were grown at 37 °C in the presence of CO2 5% in DMEM (Gibco BRL, Grand Island, NY, USA), 10% fetal bovine serum (FBS, Gibco BRL). Next, cells were seeded in a 96-well plate and incubated at 37 °C with the derivative at different concentrations for 72 h. Following treatment, cells were incubated with MTT (0.5 mg mL^−1) for 3 h. The MTT-containing medium was then removed, and 100 µL of DMSO was added to each well, mixed thoroughly with a 10-minute shake to dissolve the formazan crystals. The absorbance of each well was measured at 540 nm.[28]

[4] = MTT assay for cell viability; format: cell-based, murine; details: mouse, B16F10 melanoma cells, MTT, 72 h, read-out: % Viability ± SE
Experimental: as §1

tyrosinase = details: in Fig. 1; 13–15; read-out: IC50 against Tyrosinase; cited from earlier work

Sequence of mushroom tyrosinase (C7FF04 2-392): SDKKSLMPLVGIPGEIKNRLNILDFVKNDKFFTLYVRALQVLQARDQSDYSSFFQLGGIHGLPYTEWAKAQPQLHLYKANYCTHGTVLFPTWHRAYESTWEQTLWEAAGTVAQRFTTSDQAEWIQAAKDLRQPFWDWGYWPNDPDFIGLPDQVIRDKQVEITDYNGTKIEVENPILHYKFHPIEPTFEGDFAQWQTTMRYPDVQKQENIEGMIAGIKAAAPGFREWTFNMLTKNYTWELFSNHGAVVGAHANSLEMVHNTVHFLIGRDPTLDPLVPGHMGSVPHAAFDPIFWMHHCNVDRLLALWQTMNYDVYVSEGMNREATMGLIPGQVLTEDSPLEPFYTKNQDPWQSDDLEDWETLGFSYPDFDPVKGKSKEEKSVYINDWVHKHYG

SMILES | DPPH radical scavenging % Inhibition at 200 µM [1] [%] | also measured
O=C(C=Cc1ccccc1)NCc1cn(CC(=O)Nc2ccccc2)nn1 [Compound 9a, N-((1-(2-Oxo-2-(phenylamino)ethyl)-1H-1,2,3-triazol-4-yl)methyl)cinnamamide] | 23.64 ± 4.63 | 
O=C(C=Cc1ccccc1)NCc1cn(CC(=O)Nc2ccc(F)cc2)nn1 [Compound 9b, N-((1-(2-((4-Fluorophenyl)amino)-2-oxoethyl)-1H-1,2,3-triazol-4-yl)methyl)cinnamamide] | 64.18 ± 2.31 | 
O=C(C=Cc1ccccc1)NCc1cn(CC(=O)Nc2ccc(Cl)cc2)nn1 [Compound 9c, N-((1-(2-((4-Chlorophenyl)amino)-2-oxoethyl)-1H-1,2,3-triazol-4-yl)methyl)cinnamamide] | 36.91 ± 0.51 | 
O=C(C=Cc1ccccc1)NCc1cn(CC(=O)Nc2ccc(Br)cc2)nn1 [Compound 9d, N-((1-(2-((4-Bromophenyl)amino)-2-oxoethyl)-1H-1,2,3-triazol-4-yl)methyl)cinnamamide] | 41.09 ± 4.11 | 
CCc1ccc(NC(=O)Cn2cc(CNC(=O)C=Cc3ccccc3)nn2)cc1 [Compound 9e, N-((1-(2-((4-Ethylphenyl)amino)-2-oxoethyl)-1H-1,2,3-triazol-4-yl)methyl)cinnamamide] | 47.36 ± 1.93 | 
O=C(C=Cc1ccc(Cl)cc1)NCc1cn(CC(=O)Nc2ccccc2)nn1 [Compound 9f, 3-(4-Chlorophenyl)-N-((1-(2-oxo-2-(phenylamino)ethyl)-1H-1,2,3-triazol-4-yl)methyl)acrylamide] | 46.18 ± 1.54 | 
O=C(C=Cc1ccc(Cl)cc1)NCc1cn(CC(=O)Nc2ccc(F)cc2)nn1 [Compound 9g, 3-(4-Chlorophenyl)-N-((1-(2-((4-fluorophenyl)amino)-2-oxoethyl)-1H-1,2,3-triazol-4-yl)methyl)acrylamide] | 45.73 ± 3.47 | 
O=C(C=Cc1ccc(Cl)cc1)NCc1cn(CC(=O)Nc2ccc(Cl)cc2)nn1 [Compound 9h, 3-(4-Chlorophenyl)-N-((1-(2-((4-chlorophenyl)amino)-2-oxoethyl)-1H-1,2,3-triazol-4-yl)methyl)acrylamide] | 22.82 ± 0.90 | 
O=C(C=Cc1ccc(Cl)cc1)NCc1cn(CC(=O)Nc2ccc(Br)cc2)nn1 [Compound 9i, N-((1-(2-((4-Bromophenyl)amino)-2-oxoethyl)-1H-1,2,3-triazol-4-yl)methyl)-3-(4-chlorophenyl)acrylamide] | 51.82 ± 2.31 | Intracellular melanin content (B16F10 melanoma cells [2]): 62 µg/mL; Inhibition type (mushroom tyrosinase): competitive inhibition; Cytotoxicity to B16F10 melanoma cells (in words) (B16F10 melanoma cells [3]): low cytotoxicity; viability at 72 h, 100 µM ([4]; B16F10, 100 µM): > 80%; viability at 72 h, 150 µM ([4]; B16F10, 150 µM): 58.2 ± 3.43%; viability at 72 h, 200 µM ([4]; B16F10, 200 µM): 51.2 ± 4.34%
CCc1ccc(NC(=O)Cn2cc(CNC(=O)C=Cc3ccc(Cl)cc3)nn2)cc1 [Compound 9j, 3-(4-Chlorophenyl)-N-((1-(2-((4-ethylphenyl)amino)-2-oxoethyl)-1H-1,2,3-triazol-4-yl)methyl)acrylamide] | 82.36 ± 5.91 | 
COc1ccc(NC(=O)Cn2cc(CNC(=O)C=Cc3ccc(Cl)cc3)nn2)cc1 [Compound 9k, 3-(4-Chlorophenyl)-N-((1-(2-((4-methoxyphenyl)amino)-2-oxoethyl)-1H-1,2,3-triazol-4-yl)methyl)acrylamide] | 55.28 ± 0.16 | 
COc1ccc(C=CC(=O)NCc2cn(CC(=O)Nc3ccccc3)nn2)cc1 [Compound 9l, 3-(4-Methoxyphenyl)-N-((1-(2-oxo-2-(phenylamino)ethyl)-1H-1,2,3-triazol-4-yl)methyl)acrylamide] | 43.91 ± 4.50 | 
COc1ccc(C=CC(=O)NCc2cn(CC(=O)Nc3ccc(F)cc3)nn2)cc1 [Compound 9m, N-((1-(2-((4-Fluorophenyl)amino)-2-oxoethyl)-1H-1,2,3-triazol-4-yl)methyl)-3-(4-methoxyphenyl)acrylamide] | 60.18 ± 6.94 | 
COc1ccc(C=CC(=O)NCc2cn(CC(=O)Nc3ccc(Cl)cc3)nn2)cc1 [Compound 9n, N-((1-(2-((4-Chlorophenyl)amino)-2-oxoethyl)-1H-1,2,3-triazol-4-yl)methyl)-3-(4-methoxyphenyl)acrylamide] | 68.64 ± 7.33 | 
COc1ccc(C=CC(=O)NCc2cn(CC(=O)Nc3ccc(Br)cc3)nn2)cc1 [Compound 9o, N-((1-(2-((4-Bromophenyl)amino)-2-oxoethyl)-1H-1,2,3-triazol-4-yl)methyl)-3-(4-methoxyphenyl)acrylamide] | 57.09 ± 6.17 | 
CCc1ccc(NC(=O)Cn2cc(CNC(=O)C=Cc3ccc(OC)cc3)nn2)cc1 [Compound 9p, N-((1-(2-((4-Ethylphenyl)amino)-2-oxoethyl)-1H-1,2,3-triazol-4-yl)methyl)-3-(4 methoxyphenyl)acrylamide] | 40.73 ± 5.91 | 
COc1ccc(C=CC(=O)NCc2cn(CC(=O)Nc3ccc(OC)cc3)nn2)cc1 [Compound 9q, 3-(4-Methoxyphenyl)-N-((1-(2-((4-methoxyphenyl)amino)-2-oxoethyl)-1H-1,2,3-triazol-4-yl)methyl)acrylamide] | 61.51 ± 3.74 | 
NC(=S)N/N=C/c1ccc(OCc2cn(Cc3ccc(F)cc3)nn2)cc1 [D] |  | IC50 (tyrosinase): 0.22 µM
Clc1ccc(Cn2cc(COc3ccc(-c4nc5ccccc5[nH]4)cc3)nn2)cc1Cl [E] |  | IC50 (tyrosinase): 9.42 µM
O=c1cc(Cn2cc(Oc3ccc4ccccc4c3)nn2)occ1O [F] |  | IC50 (tyrosinase): 0.3 µM
